Series [1] concerns Murine hepatoma tumor cells (ATCC CRL-1830 Hepa 1-6). The experiment in a line: Rose Bengal PDT of left-flank tumor in mice with bilateral hepatoma tumors (Example 5). Type of series: in vivo, C57BL/6 mice. As to the method:
The immunologic basis for phototherapy-induced immunity is further illustrated by the following example which is not intended to limit the present invention. Murine hepatoma tumor cells (10^6 cells, ATCC CRL-1830 Hepa 1-6) were injected subcutaneously into the left flank of immunocompetent mice (C57BL/6). Concurrent with this implantation, a smaller implantation was performed by injecting 5×10^5 tumor cells into the right flank of these mice. Tumors presented in both flanks within approximately 5-6 days of implantation. One group of mice were otherwise untreated and served as controls. […] A second group received illumination of the left-flank tumor with green light (532 nm laser light at 100 J/cm^2, 200 mW/cm^2). […] A third group received intra-lesional injection of the left-flank tumor with 50 μL of a 10% Rose Bengal solution (the right-flank tumor was not treated); the injected tumor was then illuminated 24 hours post drug administration using 532 nm laser light.

Series [2] relates to recurrent malignant fibrous histocytoma. The experiment in a line: Rose Bengal injection plus 60Co irradiation of a dog's tumor (Example 1). Type of series: in vivo. As to the method: This anti-tumoral effect for the prototypical halogenated xanthene, Rose Bengal, is illustrated by the following example which is not intended to limit the present invention. An adult, female dog with a recurrent malignant fibrous histocytoma (an undifferentiated tumor that could be considered to be a poorly differentiated mesenchymal tumor), approximately 20 cc in volume, was treated by injection of approximately 7 cc of a 10% solution of Rose Bengal at several locations throughout the tumor volume. After a period of five days, an irradiation regimen consisting of 5 daily fractions (2 Gy each) of radiation from a ^60Co source was begun in order to effect phototherapy of the tumor. […] Such a response at 5 days is consistent with a chemotherapeutic modality of the injected Rose Bengal, while continued decrease in tumor mass at 19 days is consistent with a phototherapeutic modality related to tumor irradiation. […] This continued tumor regression is consistent with ongoing immune assault upon remaining tumor tissue.

The test system of series [3] is subcutaneous RAG tumors. The experiment in a line: Intra-lesional Rose Bengal chemotherapy of RAG tumors, immune competent mice (Example 8). Type of series: in vivo, C57BL/6 mice. Conditions: 10% solution intra-lesionally. An excerpt: (§1) The immunologic basis for phototherapy-induced immunity is further illustrated by the following example which is not intended to limit the present invention. As an additional control, immune incompetent mice were implanted with subcutaneous tumors, treated using phototherapy, then challenged with a second dose of tumor cells. Since they are immune incompetent, the inventors believed that such mice would respond to phototherapy but fail to develop immunity to tumor cells. […] The rate of tumor development from such implantation was approximately 50% (14/28 mice developed tumors within five weeks of injection). The tumors were treated using intra-lesionally-injected Rose Bengal and green light photoactivation (1% Rose Bengal administered intra-lesionally at approximately 1 cc/cm^3 tumor volume, then illuminated 24 hours post administration using 532 nm laser light at 100 J/cm^2, 200 mW/cm^2).
(§2) The chemotherapeutic and immunologic anti-tumoral effect for the prototypical halogenated xanthene, Rose Bengal, is further illustrated by the following example which is not intended to limit the present invention. Immune competent mice (C57BL/6 mice) and immune incompetent mice (BALB/C athymic nude mice) were implanted with subcutaneous RAG tumors, as previously described in Example 4. […]

The subject of series [4] is renal adenocarcinoma (RAG) tumors. The experiment in a line: Rose Bengal PDT of RAG tumors in nude mice, then tumor cell rechallenge (Example 4). It counts as in vivo, BALB/C athymic nude mice.
Text: as §1

Series [5] has as its system subcutaneous RAG tumors. The experiment in a line: Intra-lesional Rose Bengal chemotherapy of RAG tumors, immune incompetent mice (Example 8). Type of series: in vivo, BALB/C athymic nude mice. Conditions: 10% solution intra-lesionally.
Text: as §1, §2

The test system of series [6] is multiple superficial mast cell tumors. The experiment in a line: Intra-lesional Rose Bengal chemotherapy in a dog with mast cell tumors (Example 7). It counts as in vivo. As to the method:
This chemotherapeutic and immunologic anti-tumoral effect for the prototypical halogenated xanthene, Rose Bengal, is illustrated by the following example which is not intended to limit the present invention. An adult, female dog with multiple superficial mast cell tumors was treated by injection of several cc of a 10% solution of Rose Bengal into each of several tumors (approximately one third of the total tumors were treated in this manner). […] Such a response in the treated tumors is consistent with the expected chemotherapeutic modality of the injected Rose Bengal, while the noted decrease in non-treated tumors represents an ongoing immune assault upon remaining remote tumor tissues.

The source of these data is patent US20020107281A1, “Phototherapeutic and chemotherapeutic immunotherapy against tumors” (Photogen, Inc., priority 2000, published 2002).

Regarding `O=C([O-])c1c(Cl)c(Cl)c(Cl)c(Cl)c1-c1c2cc(I)c(=O)c(I)c-2oc2c(I)c([O-])c(I)cc12.[Na+].[Na+]` [Rose Bengal], the “eradication of the treated left-flank tumor” value in series [1] (50 μL of 10% Rose Bengal solution intra-lesionally, 532 nm laser light 24 hours post administration) is 5/5. Further, the “spontaneous rejection of the untreated right-flank tumor” value in series [1] (left-flank tumor treated with 10% Rose Bengal and 532 nm light, right-flank tumor not treated) was 5/5. Moreover, the “tumor mass at follow-up” value in series [2] (12 weeks post injection) is listed as “significant further reduction in tumor mass”. The “tumor size after irradiation” value in series [2] (19 days post injection, after 5 daily fractions (2 Gy each) 60Co) was “further measurable decrease in tumor size”. Moreover, the “side-effects in healthy tissue surrounding the tumor” value in series [2] (all follow-up intervals) is “no significant side-effects in healthy tissue surrounding the tumor”. Moreover, the “tumor response before irradiation” value in series [2] (approximately 7 cc of 10% solution injected into tumor, five days post injection, immediately prior to irradiation) is “measurable decrease in tumor density along with significant edema and apparent necrosis of large sections of the tumor”. In series [2] (approximately 12 months post-treatment), the “final histologic examination for viable tumor tissue” value is “no evidence of viable tumor tissue was observed”. The “immediate effect of chemotherapeutic treatment on tumor” value is given as “immediate tumor necrosis” in the series on subcutaneous RAG tumors [3] (approximately 1 cc/cm^3 tumor volume, immune competent mice) and “immediate tumor necrosis” with subcutaneous RAG tumors [5] (approximately 1 cc/cm^3 tumor volume, immune incompetent mice). The cure rate came to 100% in the series with subcutaneous RAG tumors [3] (immune competent mice (6/6 mice treated), upon follow-up) and 0% in the series on subcutaneous RAG tumors [5] (immune incompetent mice (0/4 mice treated), upon follow-up). Also, the “effect of phototherapy on treated lesions” value in series [4] (1% Rose Bengal intra-lesionally, approximately 1 cc/cm^3 tumor volume, 532 nm laser light 100 J/cm^2 24 hours post administration) is on record as “selective acute necrosis of treated lesions”. For the same compound, the “tumor development after challenge with second injection of RAG tumor cells” value in series [4] (seven complete responders, 10^4 tumor cells to opposite flank, five weeks following challenge (3/7 mice)) is reported as “approximately 50%”. Further, the “side-effects in healthy tissue surrounding the treated tumors” value in series [6] (all follow-up intervals) is recorded as “no significant side-effects in healthy tissue surrounding the treated tumors”. The systemic side effects result in series [6] (all follow-up intervals) was “nor any evidence of significant systemic side effects”. The “size of mast cell tumors, both treated and non-treated” value in series [6] (several cc of 10% solution into approximately one third of the tumors, over subsequent three month period, no light) was “marked and progressive reduction in size”.
